Assay results published in US20020182179A1, “HIV Therapy” (priority 1999, published 2002).

Columns and labels:
[1] = molecular target: HIV-1 protease (Human immunodeficiency virus type 1 group M subtype B, UniProt P04585); conditions: Phase I studies; cited from earlier work
[2] = preclinical; po and IV; cited from earlier work
[3] = tested on: HIV-1; conditions: clinical use; cited from earlier work
[4] = tested on: HIV-1-LAI strain; assay: in vitro anti-HIV-1 activity in PHA-P-activated PBMCs, RT activity in cell supernatants; assay type: cell-based
Experimental: Healthy PBMCs were separated from a buffy-coat of one HIV-seronegative blood donor by Ficoll-Hypaque density gradient centrifugation. PBMCs were activated by 1 μg/ml phytohemagglutinin (PHA-P) for two days in cell culture medium A: RPMI 1640 supplemented with 10% heat-inactivated (+56° C., 45 min.) fetal calf plasma (FCS), 2 mM L-glutamine and a tri-antibiotic mixture (penicillin, streptomycin, neomycin; PSN). After these two days, cells were washed and cultured at one million cell per milliliter in cell culture medium B: cell culture medium A supplemented with 20 IU/ml recombinant human interleukin-2. Cells were maintained at +37° C. in a 5% CO2-air humidified atmosphere.
Experiments were repeated twice with cells of other blood donors. In total, three independent experiments were performed. […]
200,000 PHA-P-activated PBMCs were added to each well of 96-well microplates. […] At day 7, RT activity were determined in cell supernatants, and potential cytotoxic effects of drugs and drug combinations were evaluated by microscopic observation.
Viral replication was measured by determining reverse transcriptase (“RT”) activity in cell supernatants using Retro-Sys® kit, according to manufacturer's recommendations (Innovagen, Lund, Sweden).
Effective doses were calculated using cumulative RT activities with Chou J. and T C. microcomputer software.

[5] = tested on: duck HBV; conditions: preclinical; cited from earlier work

Cc1cccc(C)c1OCC(=O)N[C@@H](Cc1ccccc1)[C@@H](O)C[C@H](Cc1ccccc1)NC(=O)[C@H](C(C)C)N1CCCNC1=O [ABT-378]
potency relative to ritonavir [1]: ^9Phase I Studies show ABT-378 to be 10X more potent than ritonavir; see PharmaProjects sections J5A & J5Z.

Nc1nc(N)c2ncn([C@H]3CO[C@@H](CO)O3)c2n1 [DAPD, (−)-beta-D-2,6,-diaminopurine dioxolane]
activity by route of administration [2]: ^10Preclinical; active po and IV; DAPD is a prodrug of another dioxolene purine, DXG. See PharmaProjects, sections J5A & J5Z

CC(C)c1nc(CN(C)C(=O)N[C@H](C(=O)N[C@@H](Cc2ccccc2)C[C@H](O)[C@H](Cc2ccccc2)NC(=O)OCc2cncs2)C(C)C)cs1 [Ritonavir]
adverse effects [3]: troublesome adverse effects

PEG12000-IFN-alfa2b: conjugate of interferon alfa-2b with polyethylene glycol of average molecular weight 12000 via a urethane linkage
effect on the in vitro anti HIV-1 activity of ribavirin ([4]; PHA-P-activated PBMCs infected with HIV-1-LAI): increased the in vitro anti HIV-1 activity of ribavirin
inhibition of HIV replication in vitro ([4]; PHA-P-activated PBMCs, doses corresponding to plasmatic concentrations observed in animals and man): inhibited the HIV replication

beta-L-2′, 3′-dicleoxy-5-fluorocytidene [Beta-L-FD4]
activity in duck HBV model [5]: ^9Preclinical; active in duck HBV model; see PharmaProjects, sections J5A & J5Z
